≈ marks a conversion by molar mass, not a printed value.
What was measured:
[1] = system: HIV-1IIIB; assay: HIV-1-mediated cytopathic effect (CPE), XTT; format: cell-based; conditions: for IC50: Human immunodeficiency virus 1, MT2, read-out: IC50 ± SD CPE; for selectivity ratio at 6 days: human, MT-2 cells, read-out: Selective Index (S.I.) = CC50/IC50 for CPE
Description: The inhibitory activity of the compounds was determined by a calorimetric method based on protection of cells against HIV-1-mediated CPE, as described in Jiang et al., (1991), J. Exp. Med., 174, 1557-1563. 1×10^4 MT-2 cells in 96-well plates were infected with diluted HIV-1IIIB in 200 μl RPMI 1640 medium containing 10% FBS in the presence of compounds at graded concentrations. After 1 hour, 24 hours and 4 days, half of the culture media were changed. On the sixth day post infection, an indicator, XTT tetrazolium dye (1 mg/ml; 50 μl/well; PolySciences, Inc., Warrington, Pa.), was added to the cells. After 4 hours, the soluble intracellular formazan was determined calorimetrically at 450 nm. The percent of inhibition of CPE and the IC50 values were calculated as described above.

[2] = In vitro cytotoxicity, XTT; format: cell-based; conditions: human; 50% cytotoxic concentration, MT-2 cells, no virus; read-out: CC50 ± SD
Description: The in vitro cytotoxicity for MT-2 cells of the compounds was determined in 96-well plates using the XTT dye to measure cell viability in the absence of virus. Ten μl of 5% TRITON X-100 were added to the wells corresponding to positive controls (“P”) and 10 μl medium was added to wells corresponding to negative controls (“N”). The percent cytotoxicity was calculated using the following formula: % cytotoxicity=[(E−N)/(P−N)]×100%, wherein “E” represents experimental data in the presence of compounds. The concentration corresponding to 50% cytotoxicity (CC50) for MT-2 cells was calculated using the Calcusyn computer program. The selectivity index (S.I.=CC50/IC50) for each compound was calculated.

[3] = system: H9/HIV-1IIIB cells and MT-2 cells; assay: cells; format: cell-based; conditions: for IC50: Human immunodeficiency virus 1, MT2, 2 h, read-out: IC50 ± SD Cell fusion; for Inhibition of HIV-1-mediated cell fusion (in words): compounds at 10 μg/ml, FIG. 13
Description: A dye transfer assay was used for detection of HIV-1-mediated cell fusion as described in Jiang et al., Nature, 365, 113 (1993). H9/HIV-1IIIB cells were labeled with a fluorescent reagent, 2′,7′-bis-(2-carboxyethyl)-5-and-6-carboxyfluorescein acetoxyethyl ester (BCECF-AM), (Molecular Probes, Inc., Eugene, Oreg.) and incubated with MT-2 cells (ratio=1:10) in a 96-well plate at 37° C. for 2 hours in the presence or absence of peptides or compounds tested. The fused and unfused BCECF-labeled HIV-1 infected cells were counted under an inverted fluorescence microscope (Zeiss, Germany) with an eyepiece micrometer discs. The percentage of inhibition of cell fusion was calculated as described in Jiang et al., 1993, Nature, 365, 113.
A dye transfer assay was used for detection of HIV-1 mediated cell fusion as described in Jiang, S., K. Lin, N. Strick, and A. R. Neurath, 1993, Inhibition of HIV-1 infection by a fusion domain binding peptide from HIV-1 envelope glycoprotein gp41, Biochem. Biophys. Res. Commun., 195, 533-538.
H9/HIV-1IIIB cells were labeled with a fluorescent reagent, 2′,7′-bis-(2-carboxyethyl)-5-and-6-carboxyfluorescein acetoxyethyl ester (BCECF-AM) (Molecular Probes, Inc., Eugene, Oreg.) and then incubated with MT-2 cells (ratio=1:10) in 96-well plates at 37° C. for 2 hours in the presence or absence of the compounds tested. The fused and unfused BCECF-labeled HIV-1 infected cells were counted under an inverted fluorescence microscope (Zeiss, Germany) with an eyepiece micrometer disc. The percentage of inhibition of cell fusion and the IC50 values were calculated as described in Jiang et al., (1993), Biochem. Biophys. Res. Commun., 195, 533-538.

[4] = biological target: T1, N-36/C-34 complex (HIV-1 gp41 core) (Human immunodeficiency virus type 1 group M subtype B, UniProt P04578); assay: biochemical; format: binding; conditions: for Inhibition of NC-1 detectable complex formation by N-36 and C-34 (in words): compounds at 10 μg/ml, FIG. 13; for Inhibitory activity on complex formation by N-36 and C-34 (in words): no concentration stated
T1 construct: Peptides derived from the NHR and CHR regions of gp41, designated N- and C-peptides; made in house; host or cells: chemical synthesis (solid-phase FMOC)
T1 sequence (P04578 546-581, one chain of several): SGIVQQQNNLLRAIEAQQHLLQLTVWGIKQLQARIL
Description: For detection of peptide complexes, a direct and a sandwich ELISA were used. In the direct ELISA, the N- and C-peptides were mixed at equimolar concentration in PBS and diluted in coating buffer. Then, the peptide complexes were directly coated onto the wells of microplate. In the sandwich ELISA, the plate was coated with IgG (10 μg/ml) purified from rabbit antisera directed against N36(L6)C34, followed by the addition of the peptide complexes formed by mixing N- and C-peptides in PBS in equimolar concentrations. To screen for antiviral agents, compounds were pre-incubated with N-peptides at 37° C. for 30 minutes before mixing with the C-peptides. The binding of the peptide complexes to the antibodies was then detected as described above.
The percentage of inhibition by the compounds of the binding of NC-1 to the peptide complexes was calculated as described in Jiang, S., K. Lin, and A. R. Neurath, 1991, “Enhancement of human immunodeficiency virus type-1 (HIV-1) infection by antisera to peptides from the envelope glycoproteins gp120/gp41”, J. Exp. Med., 174, 1557-1563.
A sandwich ELISA was established to screen for compounds that interfere with the formation of the N-36/C-34 complex. N-36 (2 μM) was preincubated with compounds at graded concentrations at 37° C. for 30 minutes, followed by the addition of C-34 (2 μM). After incubation at 37° C. for 30 minutes, the mixture was added to wells of a 96-well polystyrene plate (Immulon I, Dynatech Laboratories, Inc., Chantilly, Va.) which were precoated with IgG (10 μg/ml) purified from rabbit antisera directed against N36(L6)C34. […] Absorbance at 450 nm (A450) was read using an ELISA reader (Dynatech Laboratories, Inc., Chantilly, Va.). The percentage of inhibition by the compounds of the binding of NC-1 to the peptide complexes was calculated as described in Jiang S., K. Lin, and A. R. Neurath, 1991, “Enhancement of human immunodeficiency virus type-1 (HIV-1) infection by antisera to peptides from the envelope glycoproteins gp120/gp41”, J. Exp. Med., 174, 1557-1563. The concentration for 50% inhibition (IC50) was calculated using a computer program, designated Calcusyn (Chou, T.-C., 1991, “The median-effect principle and the combination index for quantitation of synergism and antagonism. In Synergism and Antagonism in Chemotherapy”, T.-C. Chou and D. C. Rideout, editors, Academic Press, San Diego, 61-102).

In the case of `Cc1ccc(N(C(=O)Nc2cccc(Cl)c2)C(C)c2nc3ccccc3c(=O)[nH]2)c(C)c1` (stereo not drawn) [ADS-J12], the IC50 [1] is reported as > 100 µg/mL, the selectivity ratio at 6 days [1] is reported as ≤ 1 and the CC50 [2] is reported as 54 ± 8.14 µg/mL (≈ 121 µM). The IC50 [3] was > 100 µg/mL and the IC50 [4] was > 224 µM.

For `Cc1ccc(N(C(=O)Nc2ccc(Cl)c(Cl)c2)C(C)c2nc3ccccc3c(=O)[nH]2)c(C)c1` (stereo not drawn) [ADS-J13, N′-(3,4-dichlorophenyl)-N-[1-(4-oxo-3,4-dihydroquinazolin-2-yl)ethyl]-N-2,4-dimethyl phenylurea], the IC50 [1] was > 100 µg/mL, the selectivity ratio at 6 days [1] was ≤ 1 and the CC50 [2] was 39.2 ± 7.6 µg/mL (≈ 81.5 µM). For the same molecule, the IC50 [3] was > 100 µg/mL, the “Inhibitory activity on HIV-1-mediated cell fusion (in words)” value ([3]; no concentration stated) was “does not inhibit” and the IC50 [4] was > 208 µM.

In the case of `CC(Nc1ccccc1Cl)c1nc2ccccc2c(=O)n1Cc1ccccc1` (stereo not drawn) [ADS-J14], the IC50 [1] is reported as > 100 µg/mL, the selectivity ratio at 6 days [1] is reported as ≤ 1 and the CC50 [2] is reported as 86.8 ± 5.79 µg/mL (≈ 223 µM). The IC50 [3] was > 100 µg/mL and the IC50 [4] was > 256 µM.

In the case of `COC(=O)c1cc(C(=O)OC)cc(N(C(=O)Nc2ccc(Cl)c(Cl)c2)C(C)c2nc3ccccc3c(=O)n2Cc2ccccc2)c1` (stereo not drawn) [ADS-J15], the IC50 [1] is reported as > 100 µg/mL, the selectivity ratio at 6 days [1] is reported as ≤ 1 and the CC50 [2] is reported as 20.9 ± 0.67 µg/mL (≈ 31.8 µM). The IC50 [3] was > 100 µg/mL and the IC50 [4] was > 152 µM.

In the case of `O=P(CCP(c1ccccc1)c1ccccc1)(c1ccccc1)c1ccccc1` [ADS-J16], the IC50 [1] is reported as > 100 µg/mL, the selectivity ratio at 6 days [1] is reported as ≤ 1 and the CC50 [2] is reported as 28.9 ± 5.97 µg/mL (≈ 69.7 µM). The IC50 [3] was 52.3 ± 2.85 µg/mL (≈ 126 µM) and the IC50 [4] was > 241 µM.

For `O=C(O)c1ccc(-c2c3nc(c(-c4ccc(C(=O)O)cc4)c4ccc([nH]4)c(-c4ccc(C(=O)O)cc4)c4nc(c(-c5ccc(C(=O)O)cc5)c5ccc2[nH]5)C=C4)C=C3)cc1` [MTCPP, meso-tetra(4-carboxyphenyl)porphyrin, reference compound], the “Inhibition of HIV-1-mediated cell fusion (in words)” value [3] was “partially inhibited”, the “Inhibition of NC-1 detectable complex formation by N-36 and C-34 (in words)” value (shortened to “Inhibition … by N-36 and C-34 (in words)”) [4] was “partially inhibited” and the “Inhibitory activity on complex formation by N-36 and C-34 (in words)” value (“Inhibitory activity on complex formation” below) [4] was “some inhibitory activity”.

With `O=S(=O)(O)c1ccc(-c2c3nc(c(-c4ccc(S(=O)(=O)O)cc4)c4ccc([nH]4)c(-c4ccc(S(=O)(=O)O)cc4)c4nc(c(-c5ccc(S(=O)(=O)O)cc5)c5ccc2[nH]5)C=C4)C=C3)cc1` [MTSPP, meso-tetra(4-sulphonatophenyl)porphyrin, reference compound] the “Inhibition of HIV-1-mediated cell fusion (in words)” value [3] was “partially inhibited”, the “Inhibition … by N-36 and C-34 (in words)” value [4] was “partially inhibited” and the “Inhibitory activity on complex formation” value [4] was “some inhibitory activity”.

In the case of `C=Cc1c(C)c2cc3nc(c(CC(=O)O)c4[nH]c(cc5nc(cc1[nH]2)C(C)=C5CC)c(C)c4C(=O)O)[C@@H](CCC(=O)O)[C@@H]3C` [chlorin e6, reference compound], the “Inhibition of HIV-1-mediated cell fusion (in words)” value [3] is reported as “partially inhibited”, the “Inhibition … by N-36 and C-34 (in words)” value [4] is reported as “partially inhibited” and the “Inhibitory activity on complex formation” value [4] is reported as “some inhibitory activity”.

With “[Tyr5,12, Lys7]-polyphemusin II [Compound T-22, reference compound]” the “Inhibitory activity on complex formation” value [4] was “do not inhibit the complex formation”.

Reference: patent US6596497B1, “Screening of antiviral compounds targeted to the HIV-1 gp41 core structure” (New York Blood Center, Inc., priority 1999, dated 2003)
